Laboratory results taken from paper PMC9144936, “New Cu^+2 Complexes with N-Sulfonamide Ligands: Potential Antitumor, Antibacterial, and Antioxidant Agents” (Molecules, 2022).

Tests used:
[1] = system: Staphylococcus aureus ATCC 6538P; experiment: Disk diffusion method, S. aureus; assay type: cell-based; details: Staphylococcus aureus, ATCC6538P; complexes 5 µL of 1 mg/mL; 25 µg Amoxicillin, 5 µg Norfloxacin; 24 h, 37 °C; read-out: Halo Zone Test (diameter of the inhibition zone)
Excerpt: (§1) The disk diffusion method was used to determine the antibacterial activity of the C1 and C2 copper complexes on four reference microbial strains, two Gram-positive (Staphylococcus aureus and Bacillus cerreus) and two Gram-negative (Escherichia coli and Pseudomonas aeruginosa) strains. The disk diffusion method was used to determine the antibacterial activity of the C1 and C2 copper complexes. The method was adapted for the purposes of the current study, according to the standards developed by the Clinical and Laboratory Standards Institute. Four reference microbial strains, two Gram-positive (Staphylococcus aureus ATCC […] and Bacillus cerreus ATCC 14579) and two Gram-negative (Escherichia coli ATCC 10536 and Pseudomonas aeruginosa ATCC 27853) strains, were used for in vitro susceptibility testing. These reference microbial strains were obtained from the American Type Culture Collection (ATCC, Manassas, VA, USA). As positive controls, Amoxicillin (Oxoid Ltd., Basingstoke, UK) and Norfloxacin (Sigma-Aldrich) were used. For each of the four species, an initial suspension of bacterial cultures was inoculated on nutrient agar plates (Merck KGaA, Darmstadt, Germany), incubated for 24 h at 37 ± 2 °C and resuspended in a physiological saline buffer to a […] concentration (on a 0.5 McFarland scale), and further inoculated on Muëller Hinton agar plates (Merck KGaA, Darmstadt, Germany). […] After inoculation, the medium surface was dried and 8 wells were radially drilled 1.5 cm from the outer edge, 3 cm apart. From aliquot samples of 1 mg/mL of each copper complex dissolved in DMSO and incorporated in sterile liquid medium, 5 μL was placed in each of the 8 wells and left for 30 min to diffuse into the agar plates. The plates were then incubated for 24 h at 37 ± 2 °C. Then, 25 μg Amoxicillin and 5 μg Norfloxacin served as a positive controls, while DMSO 0.75% was used as a negative control. Readings were conducted by measuring the diameter of the inhibition zone (Halo Zone Test, in mm). The germ sensitivity of the copper complexes was estimated by comparing the diameter of the inhibition area to that generated by the regular antibiotics with known inhibition values. […] All tests were triplicated, and the measured diameters of the inhibition zone were expressed (in mm) as mean ± standard deviation.

[2] = system: Bacillus cerreus ATCC 14579; experiment: Disk diffusion method, B. cerreus; assay type: cell-based; details: Bacillus, ATCC14579; complexes 5 µL of 1 mg/mL; 25 µg Amoxicillin, 5 µg Norfloxacin; 24 h, 37 °C; read-out: Halo Zone Test (diameter of the inhibition zone)
Excerpt: as §1

[3] = system: Escherichia coli ATCC 10536; experiment: Disk diffusion method, E. coli; assay type: cell-based; details: Escherichia coli, ATCC10536; complexes 5 µL of 1 mg/mL; 25 µg Amoxicillin, 5 µg Norfloxacin; 24 h, 37 °C; read-out: Halo Zone Test (diameter of the inhibition zone)
Excerpt: as §1

[4] = system: Pseudomonas aeruginosa ATCC 27853; experiment: Disk diffusion method, P. aeruginosa; assay type: cell-based; design: key to Halo Zone Test, class symbol: R = resistant; details: 24 h, 37 °C
Excerpt: as §1

[5] = system: human cervical carcinoma line (HeLa); experiment: MTT cytotoxicity assay, HeLa; assay type: cell-based; details: HeLa cells
Method: (§2) Three cell lines were used to determine the cytotoxicity of the complexes, a human cervical carcinoma line (HeLa), a human radical growth phase melanoma cell line (WM35), and a normal fibroblastic epithelial cell line (HFL1) using the MTT method. The cells were exposed to C1 and C2 complexes in different concentrations (50, 25, 12.5, 2, and 0.2 µM) at 24, 48, and 72 h. As positive contro, cisplatin was used.
(§3) To determine the cytotoxicity of the copper complexes, three cell lines were used: a human cervical carcinoma line (HeLa), a human radical growth phase melanoma cell line (WM35), and a normal fibroblastic epithelial cell line (HFL1). The cell lines were obtained from ATCC (American Type Cell Collection, Manassas, VA 20110-2209, USA) and were maintained in DMEM (Sigma-Aldrich, Saint Louis, Missouri, USA) supplemented with 10% fetal bovine serum (Hyclone), 1 mM glutamine (Sigma-Aldrich), and 1% antibiotic antimycotic 100× (Sigma-Aldrich). The cells were cultured at 37 °C in an atmosphere of 5% CO2 and 95% relative humidity.
(§4) The cytotoxicity assays were performed using the MTT assay (3-(4,5-dimethylthiazol-2-yl)-2,5-diphenyl tetrazolium bromide-Sigma Aldrich). Cells were plated at a density of 1 × 10^5 cells/well in 96-well plates for 24 h in normal propagation media. The cultures were then exposed to C1 and C2 complexes in different concentrations (50, 25, 12.5, 2, and 0.2 µM). The complexes were first solubilized in DMSO (Sigma) and then serial dilutions in media were performed until the final concentration of DMSO was less than 1%. As a positive control, cisplatin (Ebewe Pharma Ges.m.b.H. Nfg. KG, Austria) was used, in the same concentrations as the complexes. As a negative control, cell lines cultivated in normal expansion medium with the same amount of DMSO added were used. The cellular viability was determined using the MTT assay at 24, 48, and 72 h, respectively. Formazan particles were solubilized with DMSO and absorbances were determined at 550 nm using a microplate reader (Bio-Rad, Hercules, CA, USA). The cytotoxic activity, expressed as IC50 values representing the complex solution required to inhibit 50% of the cell proliferation, were calculated from the calibration curve by nonlinear regression. Each experiment was carried out in triplicate.

[6] = system: human radical growth phase melanoma cell line (WM35); experiment: MTT cytotoxicity assay, WM35; assay type: cell-based; details: WM35 cells, MTT
Method: as §2, §3, §4

[7] = system: normal fibroblastic epithelial cell line (HFL1); experiment: MTT cytotoxicity assay, HFL1; assay type: cell-based; details: HFL1 cells
Method: as §2, §3, §4

HeLa, WM35, HFL1 cells = assay type: cell-based
Method: as §2
This means that the cyytotoxicity is given by the complexes and that the chelation of the ligands with the copper ion is essential for the cytotoxicity of the complexes.
The cytotoxicity assays were performed using the MTT assay (3-(4,5-dimethylthiazol-2-yl)-2,5-diphenyl tetrazolium bromide-Sigma Aldrich). Cells were plated at a density of 1 × 10^5 cells/well in 96-well plates for 24 h in normal propagation media. The cultures were then exposed to C1 and C2 complexes in different concentrations (50, 25, 12.5, 2, and 0.2 µM). The complexes were first solubilized in DMSO (Sigma) and then serial dilutions in media were performed until the final concentration of DMSO was less than 1%. […] The cellular viability was determined using the MTT assay at 24, 48, and 72 h, respectively. Formazan particles were solubilized with DMSO and absorbances were determined at 550 nm using a microplate reader (Bio-Rad, Hercules, CA, USA). […]

[8] = SOD mimetic activity, xanthine/xanthine oxidase system, NBT reduction; assay type: biochemical; details: pH 7.8, read-out: SOD-like activity IC50 (50% inhibition of NBT reduction)
Method: The SOD-like activities of complexes C1 and C2 were determined by an indirect method using the xanthine/xanthine oxidase system as the source of superoxide radicals. […] The IC50 value for native Cu2Zn2SOD is 0.006 μΜ. Thus, the IC50 values for both complexes are higher than the IC50 value for native Cu2Zn2SOD but are similar to those of complexes with related sulfonamide ligands presented in the literature.
The in vitro SOD mimetic activities of the complexes were assayed using the Oberley and Spitz method with some minor modifications. To generate a reproductible and constant flux of superoxide anions, xanthine (1.5 × 10^−4 M) and xanthine oxidase in 50 mM potassium phosphate buffer, pH = 7.8, were used. The superoxide anions were detected by the reduction of nitro blue tetrazolium (NBT) (5.6 × 10^−5 M) to blue formazane, which was determined spectrophotometrically at 560 nm. Different concentrations of the complexes (50, 25, 12.5, 2, and 0.2 μM) were prepared in 50 mM Tris-HCl buffer, pH = 7.8. For each determination, 0.1 mL complex solution + 0.1 mL xanthine oxidase were added to 0.8 mL of solution containing 0.69 mL potassium phosphate buffer (pH = 7.8), 0.025 mL NBT, and […]. The inhibition percentage of NBT reduction was used to determine the SOD activities of the complexes. The conversion of xanthine to uric acid was measured at 310 nm. The % inhibition of enzyme activity was subtracted from that of NBT. The IC50 values (the concentration of complex needed to yield 50% inhibition of NBT reduction) were determined from plots of % inhibition versus complex concentration. A Specord 200 Plus Spectrophotometer was used to perform the determinations and all reagents were purchased from Sigma-Aldrich.

## CC1(C)S[C@@H]2[C@H](NC(=O)[C@H](N)c3ccc(O)cc3)C(=O)N2[C@H]1C(=O)O [Amoxicillin, reference compound]
[1]
  zone of inhibition at 1000 µg/mL: 19 ± 0.14 mm
[2]
  zone of inhibition at 1000 µg/mL: 13 ± 0.22 mm
[3]
  zone of inhibition at 1000 µg/mL: 18 ± 0.09 mm
[4]; 25 µg Amoxicillin
  Halo Zone Test, class symbol: R

## N.N.[Cl][Pt][Cl] [Cisplatin, cisplatin, reference compound]
[5]; 24 h
  IC50: 21.03 ± 0.14 µM
[5]; 48 h
  IC50: 6.02 ± 0.19 µM
[5]; 72 h
  IC50: 2.39 ± 0.04 µM
[6]; 24 h
  IC50: 26.1 ± 0.43 µM
[6]; 48 h
  IC50: 11.15 ± 0.09 µM
[6]; 72 h
  IC50: 5.98 ± 0.03 µM
[7]; 24 h
  IC50: 13.2 ± 0.89 µM
[7]; 48 h
  IC50: 3.99 ± 0.22 µM
[7]; 72 h
  IC50: 1.18 ± 0.13 µM

## Cc1ccc(-c2nnc(NS(=O)(=O)c3cccc4ccccc34)s2)cc1 [HL1, N-(5-(4-methylphenyl)-[1,3,4]–thiadiazole–2-yl)-naphtalenesulfonamide]
HeLa, WM35, HFL1 cells
  cytotoxicity of the free ligands: no significant cytotoxicity

## CCc1nnc(NS(=O)(=O)c2cccc3ccccc23)s1 [HL2, N-(5-ethyl-[1,3,4]–thiadiazole–2-yl)-naphtalenesulfonamide]
HeLa, WM35, HFL1 cells
  cytotoxicity of the free ligands: no significant cytotoxicity

## CCn1cc(C(=O)O)c(=O)c2cc(F)c(N3CCNCC3)cc21 [Norfloxacin, reference compound]
[1]
  zone of inhibition at 1000 µg/mL: 16 ± 0.21 mm
[2]
  zone of inhibition at 1000 µg/mL: 18 ± 0.19 mm
[3]
  zone of inhibition at 1000 µg/mL: 20 ± 0.11 mm
[4]; Pseudomonas aeruginosa, ATCC27853, complexes 5 µL of 1 mg/mL, 5 µg Norfloxacin, read-out: Halo Zone Test (diameter of the inhibition zone)
  zone of inhibition at 1000 µg/mL: 25 ± 0.24 mm

## Cu2Zn2SOD: native Cu2Zn2 superoxide dismutase enzyme, comparison for SOD-like activity
[8]
  IC50: 0.006 µM
